Data reported in patent US20240426776A1, “RAPID DIFFERENTIATION OF ANTIBIOTIC-SUSCEPTIBLE AND -RESISTANT BACTERIA THROUGH MEDIATED EXTRACELLULAR ELECTRON TRANSFER” (priority 2021, published 2024).
In brackets after ≈: the same amount, converted by molar mass. Like-named read-outs stand apart in the source and are kept apart here. Marks after values point to notes of the source that are not given here.

Experiments:
[1] = tested on: Klebsiella pneumoniae (strains 34 and 115); assay: microbe, parasite or virus in culture; conditions: for MIC: Klebsiella pneumoniae, MH media, 16-18 h, 37° C.
Method: (§1) Testing for S. aureus susceptibility to oxacillin differed with incubation at 30° C. for 18-24 h in MH media supplemented with 2% NaCl.
(§2) Values listed in Table 2 below include the estimated minimum inhibitory concentration from this study (μg/mL), the determination of(S) sensitive or (R) resistant microbes according to CLSI criteria, and the CLSI guidelines (μg/mL) for the species being tested. Empty cells were not evaluated.

[2] = tested on: Gram-negative 1 AR55 and Gram-negative 2 AR58; assay: READAS operator blinded test; type: cell-based; conditions: for ASIn: imipenem increased from 2× to 20× (12 to 120 μg/mL), OD600=0.1; for READAS susceptibility (first symbol of cell): imipenem up to 20× (120 μg/mL)
Method: Tests were conducted for which the species or resistance phenotype was not known beyond the fact that one set was a Gram-positive and the other Gram-negative, and the antibiotics to be tested were oxacillin and imipenem, respectively. The isolates were provided as coded streak plates. Because the species were unknown, the breakpoint concentration of oxacillin and imipenem were estimated from the known breakpoints of the four previously tested strains (as shown in Table 1; 6 μg/mL for oxacillin, S. aureus and 6 μg/mL imipenem for Gram-negative strains). Following the decision methodology for determining antibiotic susceptibility and resistance of READAS, the strains were first tested with 2× the resistance breakpoint concentration (12 μg/mL oxacillin or imipenem) and the ASI2 was measured. This was increased up to 24× the resistance breakpoint concentration. If ASI2≥0.4 then the strain was considered susceptible. […] If neither strain achieved an ASI2≥0.4, 24× the resistance breakpoint concentration was tested and the ASI24 was measured.
As another example method of operation, operator blinded tests were conducted using susceptible and resistant strains of Gram-positive and -negative bacteria. Because the species identification was unknown, […] oxacillin was chosen as the estimated resistance breakpoint for the Gram-positive strain and 6 μg/mL imipenem was initially chosen as the resistance breakpoint for the Gram-negative strain. The stains selected for this example method of operation include Gram-positive 1 ATCC 29213, Gram-positive 2 BAA-1026, Gram-negative 1 AR55 and Gram-negative 2 AR58 with cultures of OD600=0.1, for simplicity.
(§3) Both Gram-positive strains were correctly classified using 2×(12 μg/mL oxacillin) in <120 min (97±45 min and 103±33 min). The Gram-negative strains were also correctly classified after increasing concentrations of imipenem from 2× to 20×(12 to 120 μg/mL imipenem). […] These phenotypic results were confirmed with results of standard procedure known to those skilled in the art and are included in Table 4 below, wherein READAS(S) susceptibility was defined by an ASIn≥0.4; (R) resistant was defined by an ASIn<0.4; analysis time shown in minutes. The standard procedure established susceptibility or resistance, MIC in μg/mL, and analysis time shown in hours.

[3] = tested on: Gram-negative 1 AR55 and Gram-negative 2 AR58; assay: Standard procedure confirming blinded test (susceptibility, MIC, analysis time); type: cell-based; design: key to Standard procedure susceptibility or resistance (second symbol of cell): S: The standard procedure established susceptibility or resistance; R: The standard procedure established susceptibility or resistance
Method: as §3

[4] = tested on: Staphylococcus aureus (strains 29213 and 43300); conditions: cited from earlier work
[5] = tested on: Staphylococcus aureus (strains 29213 and 43300); assay: Microdilution antibiotic susceptibility assay (MIC, CLSI guidelines); type: cell-based; conditions: for MIC: Staphylococcus aureus, MH media, oxacillin: 30° C., 18-24 h, 2% NaCl, read-out: estimated minimum inhibitory concentration from this study
Method: as §1, §2

| MIC ([5]; strain 29213) [µg/mL] | MIC ([5]; strain 43300) [µg/mL] | SMILES | MIC ([1]; read-out: estimated minimum inhibitory concentration from this study, strain 34) [µg/mL] | MIC ([1]; read-out: estimated minimum inhibitory concentration from this study, strain 115) [µg/mL] | sensitive or resistant according to CLSI criteria ([1]; strain 34) | sensitive or resistant according to CLSI criteria ([1]; strain 115) | ASIn ([2]; Gram-negative 1 (AR55)) | READAS susceptibility (first symbol of cell) ([2]; Gram-negative 1 (AR55)) | ASIn ([2]; Gram-negative 2 (AR58)) | READAS susceptibility (first symbol of cell) ([2]; Gram-negative 2 (AR58)) | MIC ([3]; Gram-negative 1 (AR55)) [µg/mL] | Standard procedure susceptibility or resistance (second symbol of cell) ([3]; Gram-negative 1 (AR55)) | MIC ([3]; Gram-negative 2 (AR58)) [µg/mL] | Standard procedure susceptibility or resistance (second symbol of cell) ([3]; Gram-negative 2 (AR58)) | CLSI guidelines (resistance breakpoint) for the species [4] [µg/mL] | sensitive or resistant according to CLSI criteria ([5]; strain 29213) | sensitive or resistant according to CLSI criteria ([5]; strain 43300) |
| --- | --- | --- | --- | --- | --- | --- | --- | --- | --- | --- | --- | --- | --- | --- | --- | --- | --- |
| – | – | C[C@@H](O)[C@H]1C(=O)N2C(C(=O)O)=C(SCCN=CN)C[C@H]12 [Imipenem, imipenem] | 2 (≈ 6.68 µM) | 64 (≈ 214 µM) | S | R | 0.1 ± 0.23^c | R/R ((R) resistant was defined by an ASIn<0.4) | 0.99 ± 0.01^c | S/S (READAS(S) susceptibility was defined by an ASIn≥0.4) | ≥ 16 | R/R | ≤ 0.25 | S/S | – | – | – |
| 1 (≈ 2.14 µM) | 128 (≈ 274 µM) | NC[C@H]1O[C@H](O[C@H]2[C@H](O)[C@@H](O[C@H]3O[C@H](CO)[C@@H](O)[C@H](N)[C@H]3O)[C@H](N)C[C@@H]2N)[C@H](N)C[C@@H]1O [Tobramycin, tobramycin] | – | – | – | – | – | – | – | – | – | – | – | – | 16 | S | R |
